In patent US20130253056A1, “Continuous Administration of Levodopa and/or Dopa Decarboxylase Inhibitors and Compositions for Same” (NEURODERM, LTD., priority 2009, published 2013):

What was measured:
[1] = in vivo, sc
[2] = Effect of continuous subcutaneous carbidopa on pharmacokinetics of levodopa and carbidopa in pigs
Excerpt: (§1) In this experiment, the purpose was to determine the effect of continuous subcutaneous administration of carbidopa, with co-administration of oral L-dopa/carbidopa, on the pharmacokinetics of levodopa in pigs.

[3] = mice
Method: Mice were implanted subcutaneously with Alzet pumps containing Saline (Negative Control), Vehicle or Carbidopa solution. A day following implantation LD/CD was administered orally Q8 h. The level of levodopa and dopamine in the brain was determined following the 4th oral dose of LD/CD.

[4] = man, monkey and dog; cited from earlier work
[5] = cited from earlier work
[6] = in vivo
Excerpt: as §1

[7] = continuous subcutaneous carbidopa co-administered with any oral LD preparation

C[C@@](Cc1ccc(O)c(O)c1)(NN)C(=O)O [Carbidopa, (−)-L-α-hydrazino-α-methyl-β-(3,4-dihydroxybenzene)propanoic acid monohydrate]
histological analysis of infusion sites (local tolerance) [1]: No histological treatment-related abnormalities were observed | effect of increased carbidopa oral dose or frequency on the PK profile of levodopa [2]: did not considerably improve | increase of the AUC of levodopa [2, 7]: > 2 × | increase of the half live (t½) of levodopa [2, 7]: > 2 × | levels of plasma LD ([3]; oral LD/CD with continuous SC carbidopa 15 mg/kg/d): higher levels of plasma LD | dopamine levels in the brain ([3]; seven hours post oral LD (LD/CD 32/8 mg/kg TID), continuous SC carbidopa 15 mg/kg/d): significantly higher | fraction of an oral dose absorbed [4]: 40-70% | solubility in alcohol, chloroform or ether [5]: practically insoluble | solubility in water [5]: only slightly soluble in water | treatment related local or systemic toxicity [6]: No signs of treatment related local or systemic toxicity were observed
